From publication PMC6346239 (ChemistryOpen, 2019)
Where two headings read alike, the source gives them in different places.

Tests used:
hAT1R [1] = biological target: T1, hAT1R (Homo sapiens, UniProt P30556); assay type: binding; details: read-out: % Inhibition of hAT1R at 10 μM
T1 sequence (P30556 1-359): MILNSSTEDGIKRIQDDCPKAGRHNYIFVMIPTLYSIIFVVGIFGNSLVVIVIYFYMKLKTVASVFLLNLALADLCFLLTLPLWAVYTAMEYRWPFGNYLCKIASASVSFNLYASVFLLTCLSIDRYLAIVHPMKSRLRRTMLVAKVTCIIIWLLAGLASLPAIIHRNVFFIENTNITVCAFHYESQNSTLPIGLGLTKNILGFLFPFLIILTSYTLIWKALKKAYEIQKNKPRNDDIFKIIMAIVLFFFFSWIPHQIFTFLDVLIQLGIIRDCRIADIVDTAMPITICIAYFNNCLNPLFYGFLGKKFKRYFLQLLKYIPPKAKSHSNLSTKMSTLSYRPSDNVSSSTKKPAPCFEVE

hAT2R [2] = biological target: T2, hAT2R (Homo sapiens, UniProt P50052); assay type: binding
T2 sequence (P50052 1-363): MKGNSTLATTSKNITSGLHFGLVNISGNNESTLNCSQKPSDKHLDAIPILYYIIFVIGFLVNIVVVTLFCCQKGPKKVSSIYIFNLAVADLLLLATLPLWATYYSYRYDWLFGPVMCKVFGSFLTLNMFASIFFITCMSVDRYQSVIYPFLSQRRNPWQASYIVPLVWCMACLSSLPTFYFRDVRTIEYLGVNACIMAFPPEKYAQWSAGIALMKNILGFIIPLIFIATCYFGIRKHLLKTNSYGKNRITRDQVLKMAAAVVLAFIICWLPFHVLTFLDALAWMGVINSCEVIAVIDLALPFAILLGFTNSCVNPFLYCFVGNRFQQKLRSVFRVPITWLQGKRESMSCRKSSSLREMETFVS

hAT2R [3] = biological target: T2, hAT2R; assay: Assay 2: whole cell competition binding assay, HEK293 cells expressing AT2R
hAT1R [4] = biological target: T1, hAT1R; assay: Assay 2: whole cell competition binding assay, HEK293 cells expressing AT1R

Work on `CCCCOC(=O)NS(=O)(=O)c1sc(CC(C)C)cc1-c1ccc(OC(F)(F)F)c(Cn2ccnc2)c1` [Compound 47] yielded an inhibition at 10 µM (hAT1R [1]) of 1.8%.
With `CCCCOC(=O)NS(=O)(=O)c1sc(CC(C)C)cc1-c1cccc2c1CN(C(C)=O)C2` [Compound 83] the IC50 (hAT2R [2]) was greater than 3000 nM, the Ki (hAT2R [2]) was greater than 1500 nM and the inhibition at 10 µM (hAT1R [1]) was 15%.
`CCCCOC(=O)NS(=O)(=O)c1sc(CC(C)C)cc1-c1ccc2c(c1)CN(C(C)=O)C2` [Compound 85] was tested, and the Ki (hAT2R [2]) was 360 nM and the inhibition at 10 µM (hAT1R [1]) was 7.5%.
In the case of `CCCCOC(=O)NS(=O)(=O)c1sc(CC(C)C)cc1-c1ccc2c(c1)CCN(C(C)=O)C2` [Compound 86, Butyl ((3‐(2‐acetyl‐1,2,3,4‐tetrahydroisoquinolin‐6‐yl)‐5‐isobutylthiophen‐2‐yl)sulfonyl)carbamate], the Ki (hAT2R [2]) is reported as 56 nM, the “improvement of hAT2R affinity compared to C38” value (hAT2R [2]; versus C38) is reported as 5 fold and the “improvement of hAT2R affinity compared to amides C93 and C97” value (hAT2R [2]; versus C93 and C97) is reported as 2 fold. For the same molecule, the inhibition at 10 µM (hAT1R [1]) was 34%, the IC50 (hAT2R [3]) was 818 nM and the IC50 (hAT1R [4]) was greater than 10000 nM.
With `CCCCOC(=O)NS(=O)(=O)c1sc(CC(C)C)cc1-c1ccc2c(c1)CN(C(C)=O)CC2` [Compound 87] the Ki (hAT2R [2]) was 270 nM and the inhibition at 10 µM (hAT1R [1]) was 45%.
`CCOC(=O)NS(=O)(=O)c1sc(CC(C)C)cc1-c1ccc2c(c1)CN(C(C)=O)C2` [Compound 88] was tested, and the Ki (hAT2R [2]) was 870 nM and the inhibition at 10 µM (hAT1R [1]) was 7.7%.
With `CCOC(=O)NS(=O)(=O)c1sc(CC(C)C)cc1-c1ccc2c(c1)CN(C(=O)OCC)C2` [Compound 89] the Ki (hAT2R [2]) was 1300 nM, the “drop in hAT2R affinity compared to compound 86” value (hAT2R [2]; versus 86) was 20 fold and the “decrease in hAT2R affinity compared to methyl carbamate 92” value (hAT2R [2]; versus 92) was roughly 5 fold. For the same molecule, the inhibition at 10 µM (hAT1R [1]) was 26%.
For `CCOC(=O)NS(=O)(=O)c1sc(CC(C)C)cc1-c1ccc2c(c1)CN(C)C(=O)C2` [Compound 94], the Ki (hAT2R [2]) was 1300 nM and the inhibition at 10 µM (hAT1R [1]) was 1.5%.
